In article PMC9848259 (Journal of Enzyme Inhibition and Medicinal Chemistry, 2023):

How the values were obtained:
SH-SY5Y cells = assay: Neuroprotection against rotenone/oligomycin A, pre-incubation, MTT test; assay type: cell-based, human; settings: Rotenone/Oligomycin A 30/10 µM
SHSY5Y cell = assay: Toxicity towards SH-SY5Y cells (MTT); assay type: cell-based; settings: 0.1–10 µM
Procedure: The SH-SY5Y (human neuroblastoma) (European Collection of Cell Culture) was chosen to determine the neuroprotective properties of the novel compounds. The Ham’s F12:EMEM (1:1) medium was used (Sigma Aldrich), comprising 15% Foetal Bovine Serum (Biowest), 2 mM Glutamine (Sigma Aldrich), 100 units/ml penicillin and […] (Biological Industries) and 1% Non-Essential Amino Acids (Biological Industries).
SH-SY5Y cells were seeded at a density of 5 × 10^3 cells/well in 96-well plates. The cells were cultured for 24 h (37 °C, 5% CO2). After 24 h of incubation, the medium was removed and cells were exposed to 100 µl of the compound at a range of concentrations, or of culture medium alone (blank control). After incubation, the medium was removed, washed with PBS and 50 µl of the MTT solution was added. The plates were then incubated for two hours (37 °C, 5% CO2). The MTT solution was then removed from the wells and 100 µl of DMSO was added. The plates were incubated for 10 min at room temperature and then 5 µl of Sorensen Buffer was added. The plates were swayed and the absorbance measured in a microplate reader (Synergy H1, BioTek, Winooski, VT, USA) at a wavelength of 570 nm. Cell viability was expressed as a percentage of control values (blank control). The experiments were done in triplicate.

O=C(NCCCCCCNc1c2c(nc3ccccc13)CCC2)c1cc(Cl)cc(Cl)c1 [Compound 3e]
% neuroprotection (SH-SY5Y cells; compound 0.0001 µM): 17.64% | % neuroprotection (SH-SY5Y cells; compound 0.001 µM): 12.46% | % neuroprotection (SH-SY5Y cells; compound 0.01 µM): 7.65% | % neuroprotection (SH-SY5Y cells; compound 0.1 µM): 2.41% | toxicity towards SHSY5Y cell (SHSY5Y cell): non-toxic
